In patent US8710017B2, “Human and mouse targeting peptides identified by phage display” (priority 2000, dated 2014):
“Also recorded” adds a separate entry of the source. Ends that are not written are not given here. Peptide text beside a SMILES is read from it. * marks the point of attachment. Cbz = O=C(OCc1ccccc1)*; CH2F = FC*

Columns and labels:
HUVEC = experiment: Apoptosis by chromatin fragmentation (agarose gel) in HUVEC; assay type: cell-based, human
Procedure: 10^6 HUVEC were treated with 15 μM of VISY antennapedia (penetratin) chimera or 15 μM of antennapedia peptide (pentratin) alone for 2-4 hours and chromatin fragmentation was analyzed by electrophoresis in an agarose gel.

placenta [1] = experiment: Effect of placental targeting peptide conjugates on fetal development in pregnant mice; assay type: in vivo, mouse; settings: for effect on pregnancy: FITC conjugated, lower dosages (450 μg total); for effect on fetal development: protein and phage conjugated, higher dosages (800 to 1000 μg protein or 4.5×10^10 phage)
Description: The CARAC peptide (SEQ ID NO:46), an adipose targeting peptide (FE, TREVHRS, SEQ ID NO:47) or fd-tet phage were used as non-placental targeting controls.

APA (SK-RC-49/APA cells) [2] = target: T1, APA (SK-RC-49/APA cells) (Homo sapiens, UniProt Q07075); experiment: Cell panning of CX3CX3CX3C phage library on SK-RC-49/APA cells (insert frequency); assay type: cell-based; settings: share of 18 randomly selected phage inserts, round 2
T1 construct: The renal carcinoma cell line SK-RC-49 was transfected with an expression vector encoding full-length APA cDNA; expressed in transfected cells; host or cells: SK-RC-49 renal carcinoma cells, stably transfected (G418)
Procedure: A CX3CX3CX3C(C, cysteine; X, any amino acid) library was prepared (Rajotte et al., 1998). […] Cells were detached by incubation with 2.5 mM EDTA in PBS, washed once in binding medium (DMEM high glucose supplemented with 20 mM HEPES and 2% FCS), and resuspended in the same medium at a concentration of 2×10^6 cells/ml. 10^10 TU of phage were added to 500 μl of the cell suspension, and the mixture was incubated overnight (first round) or for 2 h (successive rounds) at 4° C. with gentle rotation. Cells were washed five times in binding medium at room temperature and resuspended in 100 μl of the same medium. Phage were rescued by adding 1 ml of exponentially growing K91Kan Escherichia coli bacteria and incubating the mixture for 1 h at room temperature. Bacteria were diluted in 10 ml of LB medium supplemented with 0.2 μg/ml tetracycline and incubated for another 20 min at room temperature. Serial dilutions were plated on LB plates containing 40 μg/ml tetracycline, and plates were incubated at 37° C. overnight before colonies were counted.
The CX3CX3CX3C phage library (10^10 transducing units [TU]) was preadsorbed on parental SK-RC-49 cells to decrease nonspecific binding. […] SK-RC-49/APA-bound phage were amplified and used for two consecutive rounds of selection.

APA (SK-RC-49/APA cells) [3] = target: T1, APA (SK-RC-49/APA cells); experiment: Phage binding specificity assay on SK-RC-49/APA cells; assay type: cell-based
Procedure: The cell binding assay was performed with an input of 10^9 TU as described for the cell panning. The specificity was confirmed by adding […] (SEQ ID NO:123) peptide to the binding medium in increasing concentrations. For phage binding on immunocaptured APA, wells were blocked for 1 h at room temperature with PBS/3% BSA and incubated with 10^9 TU for 1 h at room temperature in 50 μl PBS/3% BSA. After eight washes in PBS/1% BSA/0.01% Tween-20 and two washes in PBS, phage were rescued by adding 200 μl of exponentially growing K91Kan E. coli. Each experiment was repeated at least three times.

[4] = test system: MDA-MB-435-derived tumor xenografts; experiment: In vivo tumor homing of APA-binding phage; set-up: species or system mouse; settings: 10^9 TU iv, 5 min circulation, FIG. 22
Procedure: MDA-MB-435-derived tumor xenografts were established in female nude mice 2 months old (Jackson Labs, Bar Harbor, Me.). Mice were anesthetized with Avertin and injected intravenously through the tail vein with 10^9 TU of the phage in a 200 μl volume of DMEM. The phage were allowed to circulate for 5 min, and the animals were perfused through the heart with 5 ml of DMEM. The tumor and brain were dissected from each mouse, weighed, and equal amounts of tissue were homogenized. The tissue homogenates were washed three times with ice-cold DMEM containing a proteinase inhibitor cocktail and 0.1% BSA. Bound phage were rescued and counted as described for cell panning. Fd-tet phage was injected at the same input as a control. The experiment was repeated twice. In parallel, part of the same tissue samples were fixed in Bouin solution, and imbedded in paraffin for preparation of tissue sections. An antibody to M-13 phage (Amersham-Pharmacia) was used for the staining.

adipose tissue = experiment: Validation of adipose homing phage by in vivo homing; set-up: species or system mouse; settings: FIG. 2
Procedure: FIG. 2. Validation of adipose homing peptides. Phage bearing targeting peptides identified in Example 4 were injected into pregnant mice and their recovery from adipose tissue was compared to control fd-tet phage without targeting sequences.
The fat homing clones selected were: FA—KGGRAKD (SEQ ID NO:53), FC—RGEVLWS (SEQ ID NO:54), FE—TREVHRS (SEQ ID NO:47) and FX—VMGSVTG (SEQ ID NO:52).

placenta [5] = experiment: Validation of placenta homing phage: recovery from placenta of pregnant mice; assay type: in vivo, mouse; settings: FIG. 1
Description: FIG. 1. Validation of placenta homing phage. […] The placenta homing phage clones were: […] NO:43). The placenta homing peptides were validated in vivo by injection into pregnant mice and recovery from the placenta. […] The phage clones are identified as: […] NO:43).

mouse placenta = experiment: In vivo biopanning for placenta homing phage with post-clearing (clone frequency per round); settings: for frequency of phage clone in round III: round III of in vivo biopanning in pregnant mice; for frequency of phage clone in round IV: post-clearing in non-pregnant mouse
Procedure: Peptides homing to the mouse placenta were identified by a post-clearing protocol using a phage display library. A first round of biopanning was performed on pregnant mice. Samples of placenta were removed and phage rescued according to the standard protocols described above, with one modification. In the typical bipanning protocol, thousands of phage may be recovered from a single organ, tissue or cell type. Typically, between 200 and 300 individual colonies were selected from plated phage and these were amplified and pooled to form the phage display library for the second or third rounds of biopanning. In this example, all phage rescued from the first round of biopanning were amplified in bulk on solid medium and then pooled to form the phage display library for the second round of biopanning. That is, there was no restriction of the rescued phage from the first round of biopanning. This in vivo biopanning without restriction was performed for three rounds (rounds I-III), then a post-clearing procedure was used.
In the post-clearing protocol (round IV), phage were administered to a non-pregnant mouse. Phage that bound to tissues other than placenta were absorbed from the circulation. Remaining phage were recovered from the plasma of the non-pregnant mouse. This protocol was designed to isolate phage that bound to placenta but not to other mouse organs, tissues or cell types. The following placenta targeting peptides were identified, along with their frequencies. A search of the GenBank database disclosed that none of the SEQ ID NO's listed below was 100% homologous with any known peptide sequence.

GST-β5 integrin = target: T2, GST-β5 integrin (Homo sapiens, UniProt P18084); experiment: Annexin V binding to GST-β5 cytoplasmic domain (ELISA), competition with VISY peptide; settings: FIG. 20A
T2 construct: Plates were coated with GST fusion proteins of the cytoplasmic domains of various integrins and Annexin V was added to the plates
T2 sequence (P18084 743-799 limits assumed): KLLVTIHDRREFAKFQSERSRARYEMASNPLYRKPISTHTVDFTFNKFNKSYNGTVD
Procedure: Competitive binding assays were performed to examine the binding of Annexin V to β5 integrin and the effect of the VISY peptide. Plates were coated with GST fusion proteins of the cytoplasmic domains of various integrins and Annexin V was added to the plates. Binding of Annexin V was determined using anti-Annexin V antibodies. […] Calcium was used because Annexin V activity has been reported to be modulated by calcium. Binding of Annexin V to GST-β5 was blocked by addition of the VISY peptide (FIG. 20A).
A reciprocal study was performed, using Annexin V to coat plates and adding GST fusion proteins of integrin cytoplasmic domains. Binding was assessed using anti-GST fusion protein antibodies. […] In some studies, calcium ion appeared to interfere with the binding interaction between GST-β5 and Annexin V, with decreased binding observed in the presence of calcium (not shown).

[6] = FITC conjugates-I, 1 mouse iv (predominantly) or ip ~every other day, day 1-day 18, 9 times, Total 450 μg)
[7] = FITC conjugates-II, 1 mouse sc (predominantly) or iv ~every other day, day 4-day 17, 10 times, Total 1M (~1 mg)

T1 sequence (Q07075 whole entry): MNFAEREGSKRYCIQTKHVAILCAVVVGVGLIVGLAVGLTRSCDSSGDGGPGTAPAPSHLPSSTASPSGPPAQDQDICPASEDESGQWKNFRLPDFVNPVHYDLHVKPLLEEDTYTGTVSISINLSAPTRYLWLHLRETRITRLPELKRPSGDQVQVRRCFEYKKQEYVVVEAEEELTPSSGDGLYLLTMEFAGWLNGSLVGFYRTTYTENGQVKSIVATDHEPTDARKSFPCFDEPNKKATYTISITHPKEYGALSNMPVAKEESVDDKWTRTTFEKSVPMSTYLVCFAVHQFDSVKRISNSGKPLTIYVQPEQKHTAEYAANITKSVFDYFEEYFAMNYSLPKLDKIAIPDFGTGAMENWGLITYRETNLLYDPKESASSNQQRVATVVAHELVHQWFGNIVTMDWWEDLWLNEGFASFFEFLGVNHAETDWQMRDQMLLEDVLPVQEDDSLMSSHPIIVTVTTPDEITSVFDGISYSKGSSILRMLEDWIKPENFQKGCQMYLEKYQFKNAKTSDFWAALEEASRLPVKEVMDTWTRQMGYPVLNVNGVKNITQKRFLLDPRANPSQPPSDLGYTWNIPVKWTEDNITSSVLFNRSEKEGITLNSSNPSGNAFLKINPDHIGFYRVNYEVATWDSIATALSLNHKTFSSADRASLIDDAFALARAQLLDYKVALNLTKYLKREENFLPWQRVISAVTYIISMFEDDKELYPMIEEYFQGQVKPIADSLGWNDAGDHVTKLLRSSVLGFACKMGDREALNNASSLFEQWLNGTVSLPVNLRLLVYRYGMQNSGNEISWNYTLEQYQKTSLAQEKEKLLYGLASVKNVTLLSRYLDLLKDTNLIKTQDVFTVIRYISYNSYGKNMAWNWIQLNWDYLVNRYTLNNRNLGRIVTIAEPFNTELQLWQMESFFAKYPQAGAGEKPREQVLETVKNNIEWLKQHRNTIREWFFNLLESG

## COC(=O)C[C@H](NC(=O)[C@H](C)NC(=O)[C@@H](NC(=O)OCc1ccccc1)C(C)C)C(=O)CF [zVAD, reference compound] (Cbz-Val-Ala-Asp(OMe)-CH2F)
HUVEC; caspase inhibitor added at the same time as the VISY chimeric peptide
  inhibition of VISY chimeric peptide-induced apoptosis: up to 70%

## CARAC-FITC: CARAC peptide (SEQ ID NO:46) attached to FITC, non-placental targeting control (cysteine pairing not given here; also: attached to FITC, site not given here) [reference compound]
Placenta [1]; [6]
  Peptide Effect on Embryo: No effect
  Pregnancy Outcome: 18 d, 5 normal pups
Placenta [1]; [7]
  Peptide Effect on Embryo: Slight toxicity?
  Pregnancy Outcome: 20 d, 5 pups, 1-dead

## CAVACWADCQLGC
APA (SK-RC-49/APA cells) [2]
  Round 2 (%): 5%

## CGTGCAVECEVVC
APA (SK-RC-49/APA cells) [2]
  Round 2 (%): 5%
APA (SK-RC-49/APA cells) [3]; input 10^9 TU, not shown
  enrichment of phage binding on SK-RC-49/APA cells relative to SK-RC-49 parental cells: no selective binding

## CLGQCASICVNDC
APA (SK-RC-49/APA cells) [2]
  Round 2 (%): 5%
APA (SK-RC-49/APA cells) [3]; data not shown
  displacement of phage binding by CPRECESIC peptide: not affected
[4]
  enrichment in tumor xenografts compared to brain tissue: Neither CYNLCIRECESICGADGACWTWCADGCSRSC (SEQ ID NO:125) nor CLGQCASICVNDC (SEQ ID NO:126) phage showed any tumor-homing preference

## CPKVCPRECESNC
APA (SK-RC-49/APA cells) [2]
  Round 2 (%): 5%
[4]
  enrichment in tumor xenografts compared to brain tissue: 4 fold

## CSGLCTVQCLEGC
APA (SK-RC-49/APA cells) [2]
  Round 2 (%): 5%

## CSMMCLEGCDDWC
APA (SK-RC-49/APA cells) [2]
  Round 2 (%): 5%

## GST-PA: PA peptide (TPKTSVT) attached to GST (glutathion S-transferase)
Placenta [1]; GST conjugates-I, 1 mouse sc (predominantly) or iv ~every other day, day 4-day 17, 10 times, Total 800 μg
  Peptide Effect on Embryo: Pregnancy termination

## KGGRAKD [fat-targeting peptide, fat homing phage clone FA]
Adipose tissue
  homing to adipose tissue compared to control fd-tet phage: some elevation of homing to adipose tissue

## LGLRSVG [placenta targeting peptide, phage clone PE]
Placenta [5]
  placental homing of phage compared to control fd-tet phage: not substantially enriched in placenta
Mouse placenta
  frequency of phage clone in round III: < 1%
  frequency of phage clone in round IV: 5.3%

## PA-FITC: placenta homer PA peptide (TPKTSVT) attached to FITC (fluorescein isothiocyanate) (also: FITC conjugate, site not given here)
Placenta [1]; [6]
  Peptide Effect on Embryo: No effect
  Pregnancy Outcome: 19 d, 8 normal pups
Placenta [1]; [7]
  Peptide Effect on Embryo: Pregnancy termination
  Pregnancy Outcome: No fetuses inside

## PF-FITC: placenta homer PF peptide (YIRPFTL) attached to FITC (also: FITC conjugate, site not given here)
Placenta [1]; [6]
  Peptide Effect on Embryo: Development delay,; also recorded: toxicity
  Pregnancy Outcome: 21 d, 1 dead pup
Placenta [1]; [7]
  Peptide Effect on Embryo: Pregnancy termination
  Pregnancy Outcome: No fetuses inside

## RAPGGVR [placenta targeting peptide, phage clone PC]
Placenta [5]
  placental homing of phage compared to control fd-tet phage: substantially higher placental localization
Mouse placenta
  frequency of phage clone in round III: < 1%
  frequency of phage clone in round IV: 8.5%

## RGEVLWS [fat-targeting peptide, fat homing phage clone FC]
Adipose tissue
  homing to adipose tissue compared to control fd-tet phage: some elevation of homing to adipose tissue

## RMDGPVR [placenta targeting peptide]
Mouse placenta
  frequency of phage clone in round III: 3.1%
  frequency of phage clone in round IV: 8.5%

## TPKTSVT
Placenta [5]
  placental homing of phage compared to control fd-tet phage: more than an order of magnitude greater
Mouse placenta
  frequency of phage clone in round III: 7.4%
  frequency of phage clone in round IV: 8.5%

## TPKTSVT: placenta targeting peptide, tested displayed on phage clone PA
Placenta [1]
  effect on pregnancy: slight effect on pregnancy
  effect on fetal development: substantially interfered with fetal development

## TREVHRS [adipose targeting peptide, fat homing phage clone FE]
Adipose tissue
  homing to adipose tissue compared to control fd-tet phage: some elevation of homing to adipose tissue

## VGLHARA [placenta targeting peptide]
Mouse placenta
  frequency of phage clone in round III: 4.2%
  frequency of phage clone in round IV: 7.4%

## VMGSVTG [fat-targeting peptide, fat homing phage clone FX]
Adipose tissue
  homing to adipose tissue compared to control fd-tet phage: several orders of magnitude higher adipose localization

## VVISYSMPD
HUVEC; 15 μM, 2-4 hours, FIG. 21
  induction of apoptosis (chromatin fragmentation): Neither VISY or penetratin alone induced apoptosis
GST-β5 integrin
  effect on binding of Annexin V to GST-β5: blocked

## YIRPFTL [placenta targeting peptide, phage clone PF]
Placenta [5]
  placental homing of phage compared to control fd-tet phage: not substantially enriched in placenta
Mouse placenta
  frequency of phage clone in round III: 2.1%
  frequency of phage clone in round IV: 5.3%

## YIRPFTL: placenta targeting peptide, phage clone PF
Placenta [1]
  effect on pregnancy: slight effect on pregnancy
  effect on fetal development: substantially interfered with fetal development
